The subject of one assay is MCF7. In words: Growth inhibition of human MCF7 cells after 48 hrs. In kind it is functional. To be noted: MCF7, 48 h.
For assay [1], the system named is M21. As to the kind of experiment: Alkylation of beta tubulin in human M21 cells at 25 uM after 16 to 24 hrs. In kind it is functional, cell-based.
The subject of another assay is HT-29. In words: Growth inhibition of human HT29 cells after 48 hrs. The assay is classed as functional. To be noted: HT-29, 48 h.
Assay [2] concerns M21. In words: Growth inhibition of human M21 cells after 48 hrs. To be noted: M21, 48 h. The assay is classed as functional.
Assay [3] deals with M21. In words: Alkylation of beta tubulin in human M21 cells at 25 uM. The assay is classed as functional, cell-based.
Assay [4] has as its system M21. As to the kind of experiment: Cell cycle arrest by accumulation at G2/M phase in human M21 cells after 24 hrs by flow cytometry. The assay is classed as functional, cell-based. A general note: In flow cytometry, cells or beads pass a laser one at a time.

The source made the active and inactive calls. The calls are words filed in the database; no cut-off is given here.

The term GI50 denotes the concentration giving 50% growth inhibition.

Take `Ic1ccc(NC2=NCCO2)cc1`: the GI50 turned out to be 2.9 µM with MCF7, 1.3 µM with HT-29 and 2 µM with M21 [2]. The result in the assay on M21 [1] was Active.
As for `Cc1ccc(NC(=O)NCCCl)cc1`, the GI50 was 44 µM in the assay with MCF7, 16 µM in the assay with HT-29 and 33 µM with M21 [2].
In the assay on HT-29, `Cc1ccc(C)c(NC(=O)NCCCl)c1` displayed a GI50 of 67 µM.
With `Cc1cccc(NC(=O)NC(=O)CCl)c1`, the results for the GI50 with MCF7, with HT-29 and in the assay with M21 [2] were 6.1 µM, 9 µM and 4 µM, respectively. Moreover, the outcome in the assay on M21 [3] was inactive.
Consider `Cc1ccc(C)c(NC2=NCCO2)c1`, for which the GI50 came out at 72 µM in the assay on MCF7, 44 µM in the assay with HT-29 and 73 µM in the assay on M21 [2].
As to `Cc1cccc(NC(=O)NCCCl)c1`, the 50% growth inhibitory concentration (GI50) in the assay with HT-29 amounted to 39 µM; in the assay on M21 [2], 81 µM.
For `c1cc2c(c(NC3=NCCO3)c1)CCC2`, the GI50 stood at 26 µM with MCF7, 16 µM with HT-29 and 30 µM in the assay with M21 [2].
Regarding `COc1cc2c(c(OC)c1OC)-c1ccc(OC)c(=O)cc1[C@@H](NC(C)=O)CC2` [COLCHICINE], the concentration for 50% growth inhibition (GI50) in the assay with MCF7 was determined as 0.009 µM; in the assay on HT-29, 0.004 µM; with M21 [2], 0.015 µM.
As to `Cc1ccc(NC(=O)NC(=O)CCl)cc1C`, the figures for the GI50 with MCF7, in the assay on HT-29 and in the assay on M21 [2] were 5.5 µM, 6.9 µM and 4.3 µM, respectively. Besides, in the assay with M21 [3], the result was inactive.
As for `CC(C)(C)c1ccc(NC2=NCCO2)cc1`, the GI50 in the assay on MCF7 was found to be 3 µM; with HT-29 it was 1.5 µM; with M21 [2], 2.4 µM. For the same compound, the result in the assay with M21 [1] was Active.
On to `Cc1cc(C)cc(NC(=O)NC(=O)CCl)c1`, for which the GI50 in the assay with MCF7 worked out at 4.3 µM; in the assay on HT-29, 6.1 µM; in the assay on M21 [2] it was 3.7 µM. For the same compound, the outcome in the assay on M21 [3] was inactive.
For `Cc1cc(C)cc(NC(=O)NCCCl)c1`, the GI50 amounted to 31 µM with MCF7, 8.5 µM in the assay on HT-29 and 16 µM in the assay with M21 [2].
On the same counts, the results for `CC(=O)O[C@H]1C(=O)[C@@]2(C)[C@H]([C@H](OC(=O)c3ccccc3)[C@]3(O)C[C@H](OC(=O)[C@H](O)[C@@H](NC(=O)c4ccccc4)c4ccccc4)C(C)=C1C3(C)C)[C@]1(OC(C)=O)CO[C@@H]1C[C@@H]2O` [PACLITAXEL] are 0.054 µM, 0.015 µM and 0.037 µM.
For the compound `Cc1ccc(C)c(NC(=O)NC(=O)CCl)c1`, the GI50 in the assay with MCF7 worked out at 5.8 µM; with HT-29 it was 6.7 µM; with M21 [2], 3.8 µM. The result in the assay with M21 [3] was inactive.
Regarding `CC(C)(C)c1ccc(NC(=O)NCCCl)cc1`, the GI50 in the assay on MCF7 came out at 6.2 µM; in the assay with HT-29, 2.3 µM; in the assay with M21 [2], 4.3 µM.
`O=C(NCCCl)Nc1ccc(I)cc1`: the figures for the GI50 in the assay with MCF7, in the assay with HT-29 and in the assay with M21 [2] were 6 µM, 1.9 µM and 3.9 µM, respectively.
Consider `Cc1cccc(NC2=NCCO2)c1C`, for which the results for the GI50 with MCF7, in the assay on HT-29 and in the assay with M21 [2] were 15 µM, 9 µM and 17 µM, respectively. The result with M21 [3] was inactive.
On to `Cc1cccc(C)c1/N=C1/NCCO1`, for which the figures for the 50% growth inhibitory concentration (GI50) in the assay on MCF7, in the assay on HT-29 and with M21 [2] were 23 µM, 15 µM and 27 µM, respectively.
On the same counts, the results for `Cc1cccc(NC2=NCCO2)c1` are 52 µM, 33 µM and 61 µM.
As to `O=C(CCl)NC(=O)Nc1cccc2c1CCC2`, the figures for the concentration for 50% growth inhibition (GI50) in the assay on MCF7, in the assay on HT-29 and with M21 [2] were 2.2 µM, 3.2 µM and 4.9 µM, respectively. For the same compound, in the assay on M21 [3], the result was inactive.
For the compound `O=C(NCCCl)Nc1ccc2c(c1)Cc1ccccc1-2`, the GI50 in the assay with MCF7 came out at 14.2 µM; with HT-29, 2.3 µM; in the assay with M21 [2], 5.1 µM. In addition, the result in the assay with M21 [4] was Active.
Regarding `CC(C)(C)c1ccc(NC(=O)NC(=O)CCl)cc1`, the GI50 with MCF7 came to 4.8 µM; with HT-29 it was 3.3 µM; in the assay with M21 [2], 1.1 µM.
On the same counts, the results for `O=C(NCCCl)NC1c2ccccc2-c2ccccc21` are 21 µM, 16 µM and 38 µM.
Consider `Cc1ccc(NC(=O)NCCCl)c(C)c1`, for which, in the assay on HT-29, the GI50 came to 78 µM.
As for `Cc1cc(C)cc(NC2=NCCO2)c1`, the GI50 in the assay with MCF7 was 19 µM; with HT-29, 7 µM; in the assay on M21 [2], 12 µM.
As to `Cc1ccc(NC(=O)NC(=O)CCl)c(C)c1`, the GI50 in the assay on MCF7 was 8.6 µM; in the assay with HT-29 it was 11 µM; in the assay on M21 [2] it was 7.4 µM. Moreover, in the assay on M21 [3], the result was inactive.
In the case of `c1ccc2c(c1)-c1ccccc1C2NC1=NCCO1`, the GI50 amounted to 11 µM in the assay on MCF7, 15 µM in the assay on HT-29 and 17 µM with M21 [2].
`Cc1ccc(NC2=NCCO2)cc1`: the GI50 in the assay on MCF7 came to 27 µM; in the assay with HT-29 it was 13 µM; in the assay with M21 [2], 22 µM.
Consider `Cc1ccc(NC2=NCCO2)c(C)c1`, for which the 50% growth inhibitory concentration (GI50) with MCF7 was found to be 23 µM; in the assay on HT-29, 15 µM; in the assay on M21 [2], 26 µM. Also, the outcome with M21 [3] was inactive.
In the case of `Cc1ccc(NC(=O)NCCCl)cc1C`, the figures for the GI50 in the assay on MCF7, in the assay with HT-29 and in the assay on M21 [2] were 12 µM, 4.2 µM and 8.4 µM, respectively.
Turning to `Cc1ccc(NC(=O)NC(=O)CCl)cc1`, the GI50 with MCF7 was 7.5 µM; in the assay with HT-29, 10 µM; with M21 [2] it was 4.9 µM. In addition, the result in the assay on M21 [3] was inactive.
For the compound `Cc1ccc(NC2=NCCO2)cc1C`, the GI50 in the assay on MCF7 is 5.7 µM; with HT-29, 2.7 µM; with M21 [2], 5.1 µM. For the same compound, the outcome in the assay on M21 [1] was Active.
As for `O=C(NCCCl)Nc1ccc2c(c1)CCC2`, the values for the GI50 with MCF7, with HT-29 and in the assay with M21 [2] were 17 µM, 4.7 µM and 8.9 µM, respectively. The outcome with M21 [4] was Active.
For `c1cc2c(cc1NC1=NCCO1)CCC2`, the 50% growth inhibitory concentration (GI50) amounted to 9.1 µM in the assay with MCF7, 4.9 µM in the assay with HT-29 and 8.1 µM with M21 [2]. The result in the assay on M21 [1] and in the assay with M21 [4] was Active.
Consider `Cc1cccc(NC(=O)NC(=O)CCl)c1C`, for which the GI50 was 6.5 µM with MCF7, 6 µM in the assay with HT-29 and 4.7 µM in the assay on M21 [2]. Also, the result in the assay on M21 [3] was inactive.
In the assay with HT-29, `O=C(NCCCl)Nc1cccc2c1CCC2` displayed a GI50 of 95 µM.
Consider `CC[C@]1(O)C[C@@H]2CN(CCc3c([nH]c4ccccc34)[C@@](C(=O)OC)(c3cc4c(cc3OC)N(C)[C@H]3[C@@](O)(C(=O)OC)[C@H](OC(C)=O)[C@]5(CC)C=CCN6CC[C@]43[C@@H]65)C2)C1` [VINBLASTINE], for which the concentration for 50% growth inhibition (GI50) with MCF7 came out at 0.002 µM; with HT-29, 0.002 µM; with M21 [2] it was 0.01 µM.
As for `O=C(CCl)NC(=O)NC1c2ccccc2-c2ccccc21`, the results for the GI50 in the assay with MCF7, in the assay with HT-29 and in the assay on M21 [2] were 4.8 µM, 8.6 µM and 3.4 µM, respectively. For the same compound, the outcome with M21 [3] was inactive.
For the compound `Cc1ccccc1NC1=NCCO1`, the GI50 with MCF7 came to 21 µM; in the assay on HT-29, 13 µM; in the assay with M21 [2] it was 18 µM.
For `O=C(CCl)NC(=O)Nc1ccc(I)cc1`, the results for the concentration for 50% growth inhibition (GI50) with MCF7, in the assay on HT-29 and in the assay with M21 [2] were 6.8 µM, 6.9 µM and 4.2 µM, respectively.
For `Cc1ccccc1NC(=O)NC(=O)CCl`, the GI50 came out at 10.6 µM with MCF7, 9.8 µM in the assay with HT-29 and 6.9 µM with M21 [2]. In the assay on M21 [3], the result was inactive.
With `O=C(CCl)NC(=O)Nc1ccc2c(c1)CCC2`, the concentration for 50% growth inhibition (GI50) with MCF7 came out at 4 µM; with HT-29, 7 µM; in the assay with M21 [2], 1.7 µM. In addition, the outcome in the assay on M21 [3] was inactive.
For the compound `O=C(CCl)NC(=O)Nc1ccc2c(c1)Cc1ccccc1-2`, the values for the concentration for 50% growth inhibition (GI50) with MCF7, with HT-29 and in the assay with M21 [2] were 5 µM, 13 µM and 4.8 µM, respectively. For the same compound, the outcome with M21 [3] was inactive.
As for `Cc1cccc(C)c1NC(=O)NC(=O)CCl`, the results for the GI50 in the assay on MCF7, in the assay on HT-29 and in the assay on M21 [2] were 7.4 µM, 6.6 µM and 6.3 µM, respectively. Also, the outcome in the assay on M21 [3] was inactive.
